In article PMC11659602, “Discovering covalent cyclic peptide inhibitors of peptidyl arginine deiminase 4 (PADI4) using mRNA-display with a genetically encoded electrophilic warhead” (Communications Chemistry, 2024):
Where “and” joins values, the source holds several entries; their conditions need not be identical. Identical values can stand only once.

Test system: PADIs 1-4
Experiment: COLDER citrullination activity of purified PADIs 1-4 and PADI4 C645A (no inhibitor)
Format: biochemical, human
Design: key to Citrullination activity of PADI4 WT / C645A (Figure S4c): absorbance at 540 nm (colorimetric citrulline readout)
Conditions: for Absorbance at 540 nm: purified PADI enzyme, no inhibitor (Figure S10); for Citrullination activity of PADI4 WT / C645A (Figure S4c): no inhibitor
Experimental: PADI4 citrullination activity was analysed using the COLDER assay in 96-well plates. Peptide dilutions were prepared from a 500 µM stock, to give a 10 times concentrated dilution series (500 µM, 300 µM, 100 µM, 30 µM, 10 µM, 3 µM, 1 µM, 0.3 µM, 0.1 µM and 0.03 µM) in COLDER buffer (50 mM HEPES, 150 mM NaCl and 2 mM DTT, pH 7.5) containing 1% DMSO. In triplicate, each was diluted 10-fold further when mixed with 50 nM His-PADI4, 0.6 mg/mL BSA and 10 mM CaCl2, in COLDER buffer. With or without one hour of incubation, 10 mM N^α-Benzoyl-L-arginine ethyl ester hydrochloride (BAEE, Merck) was added to initiate the reaction (50 µL final volume). After 30 min at rt, EDTA (50 mM final concentration) was used to quench the reaction and 200 µL of COLDER solution containing 20 mM Diacetyl monoxime/2,3-butanedione monoxime (Merck), 0.5 mM Thiosemicarbazide (Acros Organics), 2.25 M H3PO4, 4.5 M H2SO4 and 1.5 mM NH4Fe(SO4)2.12H2O was added to each well. Samples were incubated for 20 min at 95 °C before measuring absorbance at 540 nm on a CLARIOstar Plus (BMG LABTECH). Data analysis was performed with GraphPad Prism. Data are presented as the average ± standard error of the mean from at least two independent replicates.

Row | Molecule | Absorbance at 540 nm | Citrullination activity of PADI4 WT / C645A (Figure S4c) (+EDTA) | Citrullination activity of PADI4 WT / C645A (Figure S4c) (-EDTA)
1 | PADI4 | 1.538 and 1.537 and 1.638 and 1.921 and 1.811 and 1.856 | – | –
2 | WT | – | 0.259 and 0.261 and 0.247 and 0.193 and 0.23 and 0.231 | 1.114 and 1.151 and 1.275 and 1.3 and 1.248
3 | PADI1 (protein, UniProt Q9ULC6 1-663, looked up) Protein-arginine deiminase …: MAPKRVVQLSLKMPTHAVCVVGVEAHVDIHSDVPKGANSFRVSGSSGVEVFMVYNRTRVKEPIGKARWPLDTDADMVVSVGTASKELKDFKVRVSYFGEQEDQALGRSVLYLTGVDISLEVDTGRTGKVKRSQGDKKTWRWGPEGYGAILLVNCDRDNHRSAEPDLTHSWLMSLADLQDMSPMLLSCNGPDKLFDSHKLVLNVPFSDSKRVRVFCARGGNSLSDYKQVLGPQCLSYEVERQPGEQEIKFYVEGLTFPDADFLGLVSLSVSLVDPGTLPEVTLFTDTVGFRMAPWIMTPNTQPPEELYVCRVMDTHGSNEKFLEDMSYLTLKANCKLTICPQVENRNDRWIQDEMEFGYIEAPHKSFPVVFDSPRNRGLKDFPYKRILGPDFGYVTREIPLPGPSSLDSFGNLDVSPPVTVGGTEYPLGRILIGSSFPKSGGRQMARAVRNFLKAQQVQAPVELYSDWLSVGHVDEFLTFVPTSDQKGFRLLLASPSACLKLFQEKKEEGYGEAAQFDGLKHQAKRSINEMLADRHLQRDNLHAQKCIDWNRNVLKRELGLAESDIVDIPQLFFLKNFYAEAFFPDMVNMVVLGKYLGIPKPYGPIINGRCCLEEKVQSLLEPLGLHCIFIDDYLSYHELQGEIHCGTNVRRKPFPFKWWNMVP | 1.397 and 1.419 and 1.464 and 1.243 and 1.309 and 1.332 | – | –
4 | PADI3 (protein, UniProt Q9ULW8 1-664, looked up) Protein-arginine deiminase …: MSLQRIVRVSLEHPTSAVCVAGVETLVDIYGSVPEGTEMFEVYGTPGVDIYISPNMERGRERADTRRWRFDATLEIIVVMNSPSNDLNDSHVQISYHSSHEPLPLAYAVLYLTCVDISLDCDLNCEGRQDRNFVDKRQWVWGPSGYGGILLVNCDRDDPSCDVQDNCDQHVHCLQDLEDMSVMVLRTQGPAALFDDHKLVLHTSSYDAKRAQVFHICGPEDVCEAYRHVLGQDKVSYEVPRLHGDEERFFVEGLSFPDAGFTGLISFHVTLLDDSNEDFSASPIFTDTVVFRVAPWIMTPSTLPPLEVYVCRVRNNTCFVDAVAELARKAGCKLTICPQAENRNDRWIQDEMELGYVQAPHKTLPVVFDSPRNGELQDFPYKRILGPDFGYVTREPRDRSVSGLDSFGNLEVSPPVVANGKEYPLGRILIGGNLPGSSGRRVTQVVRDFLHAQKVQPPVELFVDWLAVGHVDEFLSFVPAPDGKGFRMLLASPGACFKLFQEKQKCGHGRALLFQGVVDDEQVKTISINQVLSNKDLINYNKFVQSCIDWNREVLKRELGLAECDIIDIPQLFKTERKKATAFFPDLVNMLVLGKHLGIPKPFGPIINGCCCLEEKVRSLLEPLGLHCTFIDDFTPYHMLHGEVHCGTNVCRKPFSFKWWNMVP | 1.346 and 1.369 and 1.38 and 1.26 and 1.243 and 1.268 | – | –
